The conditions of this series: 100 kPa, Liquid, Vibrating tube method.

± gives the expanded uncertainty stated by the source.

In the case of `NC=O` [formamide], the mass density runs as follows: (288.15 K) 1137.91 ± 0.11 kg/m3; (298.15 K) 1129.49 ± 0.11 kg/m3; (308.15 K) 1121.04 ± 0.11 kg/m3; (318.15 K) 1112.55 ± 0.1 kg/m3; (328.15 K) 1104.04 ± 0.1 kg/m3.

`O` [water]: the mass density (328.15 K) is recorded as 985.69 ± 0.05 kg/m3.

The mass density is the mass of a sample divided by its volume.

For the origin of these results see the NIST ThermoML archive (doi:10.1021/acs.jced.9b00794).
